Measured values as given in PubChem BioAssay AID1259407 (Chemical Carcinogenesis Research Information System (CCRIS), 2018).
Active and inactive are the calls of the source. The rule behind the calls is not given here.

Test system: CCRIS mutagenicity, Ames/micronucleus/aberration tests
Assay: CCRIS mutagenicity studies
[1] = Test System: AMES SALMONELLA TYPHIMURIUM, Strain/Indicator: TA98, Metabolic Activation: NONE, Method: PREINCUBATION
[2] = Test System: AMES SALMONELLA TYPHIMURIUM, Strain/Indicator: TA98, Metabolic Activation: NONE, Method: STANDARD PLATE
[3] = Test System: AMES SALMONELLA TYPHIMURIUM, Strain/Indicator: TA100, Metabolic Activation: NONE, Method: STANDARD PLATE
[4] = Test System: AMES SALMONELLA TYPHIMURIUM, Strain/Indicator: TA1535, Metabolic Activation: NONE, Method: STANDARD PLATE
[5] = Test System: AMES SALMONELLA TYPHIMURIUM, Strain/Indicator: TA1537, Metabolic Activation: NONE, Method: STANDARD PLATE
[6] = Test System: AMES SALMONELLA TYPHIMURIUM, Strain/Indicator: TA100, Metabolic Activation: RAT, LIVER, S-9, AROCLOR 1254, Method: STANDARD PLATE
[7] = Test System: AMES SALMONELLA TYPHIMURIUM, Strain/Indicator: TA98, Metabolic Activation: RAT, LIVER, S-9, AROCLOR 1254, Method: STANDARD PLATE

Structure (SMILES): CCCCCCCOc1ccccc1NC(=O)OCCN1CCCCC1
- mutagenic call (Test System: AMES SALMONELLA TYPHIMURIUM, Strain/Indicator: TA98, Metabolic Activation: MOUSE, LIVER, S-9, AROCLOR 1254, Method: PREINCUBATION): inactive; negative
- mutagenic call [1]: inactive; negative
- mutagenic call (Test System: AMES SALMONELLA TYPHIMURIUM, Strain/Indicator: TA100, Metabolic Activation: MOUSE, LIVER, S-9, AROCLOR 1254, Method: PREINCUBATION): inactive; negative
- mutagenic call (Test System: AMES SALMONELLA TYPHIMURIUM, Strain/Indicator: TA100, Metabolic Activation: NONE, Method: PREINCUBATION): inactive; negative
- mutagenic call (Test System: AMES SALMONELLA TYPHIMURIUM, Strain/Indicator: TA1535, Metabolic Activation: MOUSE, LIVER, S-9, AROCLOR 1254, Method: PREINCUBATION): inactive; negative
- mutagenic call (Test System: AMES SALMONELLA TYPHIMURIUM, Strain/Indicator: TA1535, Metabolic Activation: NONE, Method: PREINCUBATION): inactive; negative
- mutagenic call (Test System: AMES SALMONELLA TYPHIMURIUM, Strain/Indicator: TA1538, Metabolic Activation: MOUSE, LIVER, S-9, AROCLOR 1254, Method: PREINCUBATION): inactive; negative
- mutagenic call (Test System: AMES SALMONELLA TYPHIMURIUM, Strain/Indicator: TA1538, Metabolic Activation: NONE, Method: PREINCUBATION): inactive; negative
- mutagenic call (Test System: AMES SALMONELLA TYPHIMURIUM, Strain/Indicator: TA1978, Metabolic Activation: MOUSE, LIVER, S-9, AROCLOR 1254, Method: PREINCUBATION): inactive; negative
- mutagenic call (Test System: AMES SALMONELLA TYPHIMURIUM, Strain/Indicator: TA1978, Metabolic Activation: NONE, Method: PREINCUBATION): inactive; negative
- mutagenic call (Test System: E. COLI, Strain/Indicator: CM611 UVRA/LEXA, Metabolic Activation: MOUSE, LIVER, S-9, AROCLOR 1254, Method: PREINCUBATION): inactive; negative
- mutagenic call (Test System: E. COLI, Strain/Indicator: CM611 UVRA/LEXA, Metabolic Activation: NONE, Method: PREINCUBATION): inactive; negative
- mutagenic call (Test System: E. COLI, Strain/Indicator: WP2, Metabolic Activation: MOUSE, LIVER, S-9, AROCLOR 1254, Method: PREINCUBATION): inactive; negative
- mutagenic call (Test System: E. COLI, Strain/Indicator: WP2, Metabolic Activation: NONE, Method: PREINCUBATION): inactive; negative
- mutagenic call (Test System: E. COLI, Strain/Indicator: WP2 UVRA, Metabolic Activation: MOUSE, LIVER, S-9, AROCLOR 1254, Method: PREINCUBATION): inactive; negative
- mutagenic call (Test System: E. COLI, Strain/Indicator: WP2 UVRA, Metabolic Activation: NONE, Method: PREINCUBATION): inactive; negative
- mutagenic call (Test System: E. COLI, Strain/Indicator: WP67 UVRA/POLA, Metabolic Activation: MOUSE, LIVER, S-9, AROCLOR 1254, Method: PREINCUBATION): inactive; negative
- mutagenic call (Test System: E. COLI, Strain/Indicator: WP67 UVRA/POLA, Metabolic Activation: NONE, Method: PREINCUBATION): inactive; negative

Structure (SMILES): CN(C)c1ccc(C(=C2C=CC(=[N+](C)C)C=C2)c2ccccc2)cc1
- mutagenic call (End Point: IN VIVO MICRONUCLEUS, Test System: PERIPHERAL BLOOD ERYTHROCYTES, Species: MOUSE, Strain/Sex: BIG BLUE B6C3F1/FEMALE, Route: DIET): inactive; negative
- mutagenic call (Test System: AMES SALMONELLA TYPHIMURIUM, Strain/Indicator: TA97A, Metabolic Activation: NONE, Method: STANDARD PLATE): inactive; negative
- mutagenic call (Test System: AMES SALMONELLA TYPHIMURIUM, Strain/Indicator: TA97A, Metabolic Activation: RAT LIVER S-9, 3-METHYLCHOLANTHRENE, PHENOBARBITAL, Method: STANDARD PLATE): inactive; negative
- mutagenic call [2]: inactive; negative
- mutagenic call (Test System: AMES SALMONELLA TYPHIMURIUM, Strain/Indicator: TA98, Metabolic Activation: RAT LIVER S-9, 3-METHYLCHOLANTHRENE, PHENOBARBITAL, Method: STANDARD PLATE): inactive; negative
- mutagenic call (Test System: AMES SALMONELLA TYPHIMURIUM, Strain/Indicator: TA98, Metabolic Activation: RAT, LIVER, S-9, Method: STANDARD PLATE): active; positive
- mutagenic call [3]: inactive; negative
- mutagenic call (Test System: AMES SALMONELLA TYPHIMURIUM, Strain/Indicator: TA100, Metabolic Activation: RAT LIVER S-9, 3-METHYLCHOLANTHRENE, PHENOBARBITAL, Method: STANDARD PLATE): inactive; negative
- mutagenic call (Test System: AMES SALMONELLA TYPHIMURIUM, Strain/Indicator: TA100, Metabolic Activation: RAT, LIVER, S-9, Method: STANDARD PLATE): inactive; negative
- mutagenic call (Test System: AMES SALMONELLA TYPHIMURIUM, Strain/Indicator: TA100, Method: PREINCUBATION): active; positive
- mutagenic call (Test System: AMES SALMONELLA TYPHIMURIUM, Strain/Indicator: TA102, Metabolic Activation: NONE, Method: STANDARD PLATE): inactive; negative
- mutagenic call (Test System: AMES SALMONELLA TYPHIMURIUM, Strain/Indicator: TA102, Metabolic Activation: RAT LIVER S-9, 3-METHYLCHOLANTHRENE, PHENOBARBITAL, Method: STANDARD PLATE): inactive; negative
- mutagenic call [4]: inactive; negative
- mutagenic call (Test System: AMES SALMONELLA TYPHIMURIUM, Strain/Indicator: TA1535, Metabolic Activation: RAT, LIVER, S-9, Method: STANDARD PLATE): inactive; negative
- mutagenic call [5]: inactive; negative
- mutagenic call (Test System: AMES SALMONELLA TYPHIMURIUM, Strain/Indicator: TA1537, Metabolic Activation: RAT, LIVER, S-9, Method: STANDARD PLATE): inactive; negative
- mutagenic call (Test System: CHO/HGPRT, Strain/Indicator: CHO-K1, Metabolic Activation: NONE, Method: STANDARD PLATE): inactive; negative
- mutagenic call (Test System: CHO/HGPRT, Strain/Indicator: CHO-K1, Metabolic Activation: RAT LIVER S-9, 3-METHYLCHOLANTHRENE, PHENOBARBITAL, Method: STANDARD PLATE): inactive; negative

Structure (SMILES): OCC(O)C1CO1 (stereo unspecified)
- mutagenic call (End Point: IN VIVO MICRONUCLEUS, Test System: SPERMATID, Species: RAT, Strain/Sex: SPRAGUE-DAWLEY/MALE, Route: IP INJECTION): active; positive
- mutagenic call [3]: active; positive
- mutagenic call [6]: active; positive

Structure (SMILES): COC(=O)C(C)=Cc1ccc([N+](=O)[O-])o1
- mutagenic call [1]: active; positive

Structure (SMILES): CC(C)=CC1C(C(=O)O)C1(C)C (stereo unspecified)
- mutagenic call [2]: inactive; negative
- mutagenic call [7]: inactive; negative
- mutagenic call [3]: inactive; negative
- mutagenic call [6]: inactive; negative
- mutagenic call [4]: inactive; negative
- mutagenic call (Test System: AMES SALMONELLA TYPHIMURIUM, Strain/Indicator: TA1535, Metabolic Activation: RAT, LIVER, S-9, AROCLOR 1254, Method: STANDARD PLATE): inactive; negative
- mutagenic call [5]: inactive; negative
- mutagenic call (Test System: AMES SALMONELLA TYPHIMURIUM, Strain/Indicator: TA1537, Metabolic Activation: RAT, LIVER, S-9, AROCLOR 1254, Method: STANDARD PLATE): inactive; negative
- mutagenic call (Test System: E. COLI, Strain/Indicator: WP2, Metabolic Activation: NONE, Method: STANDARD PLATE): inactive; negative
- mutagenic call (Test System: E. COLI, Strain/Indicator: WP2, Metabolic Activation: RAT, LIVER, S-9, AROCLOR 1254, Method: STANDARD PLATE): inactive; negative

Structure (SMILES): Cc1ccccc1NO
- mutagenic call [2]: inactive; negative
- mutagenic call (Test System: AMES SALMONELLA TYPHIMURIUM, Strain/Indicator: TA98, Metabolic Activation: RAT, LIVER, S-9, AROCLOR 1254, Method: PREINCUBATION): inactive; negative
- mutagenic call [7]: inactive; negative
- mutagenic call [3]: inactive; negative
- mutagenic call [6]: active; positive
- mutagenic call (Test System: AMES SALMONELLA TYPHIMURIUM, Strain/Indicator: TA100, Metabolic Activation: RAT, LIVER, S-9, PCB, Method: PREINCUBATION): active; positive
